# Reference: PMC9127750, “Structure-based design of CDC42 effector interaction inhibitors for the treatment of cancer” (Cell reports, 2022)
# “And” between values parts separate entries of the source, which are not always exact repeats. Equal entries are not always repeated.
# Test system: WM3248 melanoma cells, 486 antibodies
# Assay: Reverse phase protein arrays (RPPA);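 on Cyclin.E1.R.V RPPA level: ratio of treated to vehicle (0 µM) normalized linear protein signal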;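 on DDB.1.R.V RPPA level: ratio of treated to vehicle (0 µM) normalized linear protein signal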
# Assay type: cell-based, Human
# Conditions: 20 uM
# Excerpt: Pellets were snap frozen in liquid nitrogen and shipped to MD Anderson Cancer Center core RPPA facility for RPPA analysis (Table S5). Three biological replicates for each sample were generated.
# Nomenclatures on the RPPA heatmaps: name_of_antibody.species_of_antibody.status_of_antibody. V - antibody validated; C - validation of antibody in progress; Q - antibody nonspecific; E – under evaluation; antibodies raised in M - mouse, G - goat, R - rabbit, or T - rat.
structure (smiles),measurement,setting,value
"CN(C)c1cccc(Nc2cc(-c3ccccc3)nc(C3CCNCC3)n2)c1 [ARN22089, N1,N1-dimethyl-N3-(6-phenyl-2-(piperidin-4-yl)pyrimidin-4-yl)benzene-1,3-diamine]",Cyclin.D3.M.V RPPA level,replicates,0.858 and 0.793 and 0.870
same,Cyclin.E1.R.V RPPA level,replicates,1.034 and 0.978 and 0.864
same,Cyclophilin.F.M.V RPPA level,replicates,1.052 and 0.867 and 0.858
same,D.a.Tubulin.R.V RPPA level,replicates,0.908 and 1.131 and 1.049
same,DAPK1_pS308.M.C RPPA level,replicates,1.387 and 1.152
same,DAPK2.R.C RPPA level,replicates,0.896 and 1.008 and 1.104
same,DDB.1.R.V RPPA level,replicates,1.000 and 0.862 and 0.981
same,DDR1.R.V RPPA level,replicates,1.126 and 0.892 and 0.988
same,DDR1_pY513.R.C RPPA level,replicates,1.221 and 1.216 and 0.940
same,DJ1.R.V RPPA level,replicates,0.994 and 0.831 and 1.019
same,DM.Histone.H3.R.V RPPA level,replicates,4.051 and 0.967
same,DM.K9.Histone.H3.M.V RPPA level,replicates,1.226 and 2.170 and 0.946
same,DNA.Ligase.IV.R.C RPPA level,replicates,0.890 and 0.918 and 1.135
same,DNA_POLG.R.V RPPA level,replicates,1.260 and 0.956 and 0.859
same,c.Jun_pS73.R.V RPPA level,replicates,0.959 and 1.053 and 0.897
same,c.Kit.R.V RPPA level,replicates,1.404 and 1.046 and 0.973
same,c.Met_pY1234_Y1235.R.V RPPA level,replicates,0.958 and 1.104 and 1.130
same,c.Myc.R.C RPPA level,replicates,0.956 and 0.888 and 0.971
same,cGAS.R.V RPPA level,replicates,1.158 and 0.984
same,cdc2_pY15.R.C RPPA level,replicates,0.840 and 1.245 and 1.217
same,cdc25C.R.V RPPA level,replicates,0.813 and 0.749 and 1.085
same,RPPA MYH11.R.C,single replicates,1.235 and 1.080 and 0.987
same,RPPA Myosin.IIa.R.C,single replicates,0.819 and 0.811 and 1.194
same,RPPA Myosin.IIa_pS1943.R.V,single replicates,1.011 and 0.857 and 1.050
same,RPPA Myt1.R.C,single replicates,0.843 and 1.001 and 1.193
same,RPPA N.Cadherin.R.V,single replicates,1.047 and 1.081 and 0.976
same,RPPA N.Ras.M.V,single replicates,0.921 and 0.893 and 0.971
same,RPPA NAPSIN.A.R.C,single replicates,0.982 and 1.016 and 1.141
same,RPPA NDRG1_pT346.R.V,single replicates,0.868 and 0.915 and 1.192
same,RPPA NDUFB4.R.V,single replicates,1.100 and 0.998 and 0.982
same,RPPA NRF2.R.C,single replicates,0.849 and 0.982 and 0.977
same,RPPA Notch1.R.V,single replicates,1.052 and 1.121 and 0.952
same,RPPA Notch1.cleaved.R.V,single replicates,0.740 and 0.849 and 1.080
same,RPPA Notch3.R.C,single replicates,1.026 and 1.150 and 0.931
same,RPPA Oct.4.R.C,single replicates,0.991 and 1.164 and 1.209
same,RPPA P.Cadherin.R.C,single replicates,1.264 and 1.125
same,RPPA PAI.1.M.V,single replicates,1.005 and 1.281 and 0.932
same,RPPA PAICS.R.C,single replicates,0.803 and 0.811 and 1.058
same,RPPA PAK1.R.V,single replicates,0.820 and 0.886 and 1.049
same,RPPA PAK4.R.V,single replicates,1.076 and 0.939
same,RPPA PAK_pS474_S602_S560.R.V,single replicates,1.380 and 1.298 and 0.931
same,RPPA PAK_pT423_T402.R.C,single replicates,1.015 and 1.053 and 0.971
same,RPPA PAR.R.C,single replicates,0.974 and 1.464 and 0.714
same,RPPA PARG.R.C,single replicates,1.599 and 1.316 and 1.014
same,RPPA PARP.R.V,single replicates,0.538 and 1.057 and 1.348
same,RPPA PAX6.R.V,single replicates,1.001 and 1.058 and 0.982
same,RPPA PAX8.R.C,single replicates,1.024 and 0.925 and 0.962
same,RPPA PCNA.M.C,single replicates,0.783 and 0.854 and 0.955
same,RPPA PD.1.R.V,single replicates,1.098 and 1.052 and 0.984
same,RPPA PD.L1.R.C,single replicates,0.895 and 1.054 and 1.001
same,RPPA PDH.M.V,single replicates,0.970 and 1.058 and 0.953
same,RPPA PDHA1.R.V,single replicates,0.972 and 1.004 and 1.113
same,RPPA PDHK1.R.C,single replicates,0.803 and 0.959 and 1.129
same,RPPA PDK1.R.V,single replicates,1.000 and 1.250
same,RPPA PDK1_pS241.R.V,single replicates,0.916 and 0.898 and 1.103
same,RPPA PEA.15.R.V,single replicates,0.986 and 0.870 and 0.999
same,RPPA PEA.15_pS116.R.V,single replicates,1.029 and 0.986
same,RPPA PERK.R.V,single replicates,1.320 and 0.802 and 0.841
same,RPPA PGM1.R.V,single replicates,0.846 and 0.933
same,RPPA PHGDH.R.C,single replicates,0.989 and 0.962
same,RPPA PHLPP.R.V,single replicates,1.674 and 0.930 and 0.767
same,RPPA PI3K.p85.R.C,single replicates,1.023 and 0.792 and 0.886
same,RPPA PI3K.p110.a.R.C,single replicates,0.804 and 0.921
same,RPPA PI3K.p110.b.M.C,single replicates,0.988 and 0.918 and 0.941
same,RPPA PKA.a.R.V,single replicates,0.974 and 0.780 and 1.028
same,RPPA PKC.a.b.II_pT638_T641.R.V,single replicates,0.684 and 0.941 and 1.154
same,RPPA PKC.b.II_pS660.R.V,single replicates,0.997 and 1.114 and 1.126
same,RPPA PKCa.R.V,single replicates,0.630 and 2.106 and 1.942
same,RPPA PKM2.R.C,single replicates,0.846 and 0.763
same,RPPA PLC.gamma1.R.V,single replicates,1.296 and 0.944 and 0.963
same,RPPA PLC.gamma1_pS1248.R.V,single replicates,0.837 and 0.893 and 0.954
same,RPPA PLC.gamma2_pY759.R.V,single replicates,1.000 and 1.004 and 0.945
same,RPPA PLK1.R.C,single replicates,1.107 and 0.592 and 1.060
same,RPPA PMS2.R.V,single replicates,1.016 and 0.991 and 0.952
same,RPPA PR.R.V,single replicates,0.957 and 0.966 and 0.945
same,RPPA PRAS40.M.C,single replicates,1.496 and 1.229 and 0.955
same,RPPA PRAS40_pT246.R.V,single replicates,1.099 and 1.166
same,RPPA PRC1_pT481.R.C,single replicates,1.163 and 1.114 and 0.975
same,RPPA PREX1.R.V,single replicates,0.874 and 0.851 and 1.124
same,RPPA PTEN.R.V,single replicates,1.018 and 1.109 and 1.120
same,RPPA PTPN12.R.V,single replicates,1.234 and 1.447
